Results reported in PubChem BioAssay (NCI).
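Dose response: 5 concentrations. Exposure: 48 h. Format: 96-well plates. Endpoint: linear interpolation; highest concentration if not reached. TGI is the concentration that stops growth completely.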

Tests used:
Assay in all cases: NCI tumour cell line growth inhibition, 48 h
[1] = test system: T-47D breast
[2] = test system: A498 renal
[3] = test system: K-562 leukemia
[4] = test system: MCF7 breast
[5] = test system: NCI-H522 lung
[6] = test system: MOLT-4 leukemia
[7] = test system: BT-549 breast
[8] = test system: HOP-62 NSCLC
[9] = test system: HL-60(TB) leukemia
[10] = test system: NCI-H460 lung
[11] = test system: SK-MEL-2 melanoma

Structure (SMILES)	TGI [1] [µM]	TGI [2] [µM]	TGI [3] [µM]	TGI [4] [µM]	TGI [5] [µM]	TGI [6] [µM]	TGI [7] [µM]	TGI [8] [µM]	TGI [9] [µM]	TGI [10] [µM]	TGI [11] [µM]
O=C(O)CNC(=O)c1ccc([As](=O)(O)O)cc1	> 100	> 100	> 100	> 100	> 100	> 100	> 100	> 100	> 100	> 100	> 100
O=C1C(Br)=Cc2c(Cl)sc(Cl)c21	7.58	52.1	13.6	11.5	11.7	2.08	88.4	28.6	6.3	53.3	32.3
O=C1C(C=NCCc2c[nH]c3ccccc23)C(C(F)(F)F)=NN1c1nc2ccccc2s1 (stereo not given)	25.5	42.1	> 100	57.2	43.6	60.4	66.3	46.9	47.8	62.4	77.7
CSc1c(C(=O)Nc2ccc(C)cc2)c(N)[nH]c(=O)c1C#N	> 100	> 100	> 100	> 100	> 100	> 100	> 100		> 100	> 100	> 100
NCCCC(N)C(=O)O (stereo not given)	> 100	> 100	> 100	> 100	> 100	> 100	> 100	> 100	> 100	> 100	> 100
Cc1ccc(C2=Nc3c(c(C)nn3-c3ccccc3)N=C(C(=O)O)C2)cc1	> 10	> 10	> 10	> 10	> 10	> 10	> 10	> 10	> 10	> 10	> 10
O=C1NC(=S)NC(=O)C1C(c1ccccc1[N+](=O)[O-])C1C(=O)NC(=S)NC1=O	> 100	> 100	> 100	> 100	> 100	> 100	> 100	> 100	> 100	> 100	> 100
O=c1c2cc(I)ccc2[nH]c(=S)n1Cc1ccccc1	> 100	54.3	> 100	> 100	42.9	> 100	44.6	63	28.5	> 100	56
COc1cc2c(cc1OC)C(=O)/C(=C/c1cc(C)c(O)c(C)c1)C2	> 100	> 100	> 100	> 100	> 95.9	> 100	> 100	> 100	> 100	> 100	
O=C1CC(c2ccc([N+](=O)[O-])cc2)C2(C(=O)NC(=S)NC2=O)C(c2ccc([N+](=O)[O-])cc2)C1 (stereo not given)	96.3	85	> 100	43.8	36.4	> 100	34.1	56	> 100	42.2	
Cc1cccc(N(CCC#N)S(=O)(=O)c2ccccc2)c1	> 100	> 100	> 100	> 100	> 100	> 100	> 100	> 100	> 100	> 100	> 100
Brc1ccc2c3c1[C@@H]1O[C@@H]1c1cccc(c1-3)[C@@H]1O[C@H]21	45	> 69.1	> 100	> 100	31.4	> 100	43.2	43.1	66.5		> 71.5
CN(O)C(=O)Cc1ccc(OCc2cccc(Cl)c2)cc1	> 100	94.3	> 100	> 100	> 100	> 100	> 100	> 100	> 100	> 100	> 100
O=C1/C(=C/c2ccc([N+](=O)[O-])cc2)CNC/C1=C\c1ccc([N+](=O)[O-])cc1	> 81.3	37.3	1.21	> 100	9.4	> 38	7.73	15.9	10	12.7	> 100
CO/N=C1/c2sccc2[C@H](NC(=O)CNC(=O)OC(C)(C)C)[C@@H]1O	> 100	> 100	> 100	> 100		> 100	> 100	> 100	> 100	> 100	> 100
O=C(O)c1ccc(NS(=O)(=O)Cc2ccccc2)cc1	> 100	> 100	> 100	> 100	> 100	> 100	> 100	> 100	> 100	> 100	> 100
C/C(=N/NC(=S)Nc1cccc(C)c1)c1ccccn1	12.4	3.54	1.64	0.224	7.23		12.2	4.98	< 0.158	5.59	4.42
CCOc1ccc(N=C/C=C(\Cl)c2ccc3ccccc3c2)cc1	22.3	> 94.5	23.7	55.1	52.1	6.16	40.4	29.8	33.8	44.8	42.7
Cc1oc2nc(N(C)C)n3nnnc3c2c1C	> 100	> 100	> 100	> 100	> 100	> 100	> 100		63.6		

Structure (SMILES)	TGI [1] [µM]	TGI [2] [µM]	TGI [3] [µM]	TGI [4] [µM]	TGI [5] [µM]	TGI [6] [µM]	TGI [7] [µM]	TGI [8] [µM]	TGI [9] [µM]	TGI [10] [µM]	TGI [11] [µM]
c1ccc2c(c1)CCCN1CCc3ccccc3C21 (stereo not given)	> 100	> 100	> 100	> 100	> 100	> 100	> 100	> 100	> 100	> 100	> 100
Nc1ncnc2c1ncn2C(=O)NC12CC3CC(CC(C3)C1)C2	> 100	> 100	> 100	> 100		> 100	> 100	> 100	> 100	> 100	> 100
Cc1cc(O)cc(O)c1N=Nc1ccc([N+](=O)[O-])cc1	> 100	50.9	> 100	> 100	14.5	17.3	54.1	> 100	> 100	61	75.4
Cc1ccc(C(=O)Nc2ccc(CP(=O)(O)O)cc2)cc1NC(=O)c1cccc(NC(=O)Nc2cccc(C(=O)Nc3cc(C(=O)Nc4ccc(CP(=O)(O)O)cc4)ccc3C)c2)c1	> 100	> 100	> 100	> 100	> 100		> 100	> 100	> 100	> 100	> 100
CCOC(=O)c1c(SCCN2CCCC2)n(-c2ccccc2)c(=S)n(-c2ccccc2)c1=O	9.41	22.5	5.63	3.36	4.08	5.11	13.9	36.6	3.52	12.3	28.4
CC(=O)OCC1OC(n2c(=S)[nH]c(-c3ccccc3)c(C#N)c2=O)C(OC(C)=O)C(OC(C)=O)C1OC(C)=O (stereo not given)	> 100	> 100	> 100	> 100	> 100	> 100	> 100	> 100	> 100	> 100	> 100
CCOC(=O)C1C(=O)CC(O)(c2ccccc2)C(C(=O)OCC)C1c1ccc(OC)cc1 (stereo not given)	> 100	> 100	> 83.4	> 100	38.2	> 82	> 100	> 100	> 47.8	> 100	77.6
Cc1nc2cc(C(F)(F)F)ccc2[nH]c1=O	> 100	> 100	> 100	> 100		> 100	> 100	> 100	> 100	> 100	> 100
CCOC(=O)c1cnc2[nH]ccn2c1=O	> 10	> 10	> 10	> 10		> 10	> 10	> 10	> 10	> 10	> 10
Cc1cccc(C[C@@]2(SCc3ccccc3)C(C)(C)[C@@H]3CC[C@@]2(C)C3)n1	24.9	28.6	28.9	26.8	29.1	27.3	42.6	60.2	29.7	31.3	27.8
O=C1/C(=C/c2ccc(F)cc2)CNC/C1=C\c1ccc(F)cc1	20.3	4.33		8.83	3.26	> 40.5	3.67	4.56	> 100	2.36	29
N#CC(C#N)=C1CCCS(=O)(=O)c2ccccc21	> 100	> 100	> 100	> 100		> 100	> 100	> 100	> 100	> 100	> 100
COC(=O)CCCC(=O)C(=Nc1c(Cl)cccc1Cl)NNc1ccc(Cl)cc1	> 100	88.6	> 100	> 100	> 85.7	76.6	> 100	> 100	> 100	> 100	> 80.3
CC1=CC=CC(C)(C)CC1(O[Si](C)(C)C)C(F)(F)F (stereo not given)	> 100	> 100	> 100	> 100	> 100		> 100	> 100	> 100	> 100	> 100
O=C(O[C@H](/C=C/c1ccccc1)P1(=O)N(Cc2ccccc2)[C@@H]2CCCC[C@H]2N1Cc1ccccc1)c1ccccc1	3.66	> 100	> 100	> 100	> 100		> 100	> 100	> 100	> 100	5.53
CCOP(=O)(OCC)/C(F)=C/c1ccccc1	> 100	> 100	> 100	> 100	> 100	> 100	> 100	> 100	> 100	> 100	> 100
CN1C(=O)CN(NC(=O)C2=C(O)c3ccc(Br)cc3S(=O)(=O)N2)C1=S	> 100	> 100	> 100	> 100	> 100	> 100	> 100	> 100	> 100	> 100	> 100
O=C1/C(=C/c2ccc(Br)s2)NC(=S)N1CN1CCOCC1	> 100	> 100	99.2	52.8	> 100	> 100	> 100	> 100	62.6	> 100	> 100
